Test results: patent publication EP3046573B1, “AMYLIN ANALOGUES” (Zealand Pharma A/S, priority 2013, dated 2015)
Numbered stars: 1 amine (or outer) side, 2 acyl side, 3 side chain; on linkers, the order of the positions; unused ones are H or OH. Bridge positions count the residues as written; N and C are the ends. Square brackets hold non-standard residues; d marks the D form. Peptide text beside a SMILES is read from it. * marks the point of attachment. C20 diacid = O=C(O)CCCCCCCCCCCCCCCCCCC(=O)*; γGlu = O=C(O)[C@H](CCC(=O)[*:2])N[*:1]; Hyp = O=C(O)[C@@H]1C[C@@H](O)CN1; NMeI = CC[C@H](C)[C@H](NC)C(=O)O; Sar = CNCC(=O)O

Experiments:
[1] = Solubility assessment (turbidity absorbance at 325 nm); assay type: physicochemical; details: stock 2 mg/ml diluted 1:1, ambient temperature (typically 25°C), n=1; for Solubility, Acetate buffer pH 4: 100 mM acetate buffer pH 4.0; for Solubility, Acetate buffer pH 5: 100 mM acetate buffer pH 5.0; for Solubility, Histidine buffer pH 6: 100 mM histidine buffer pH 6.0; for Solubility, Histidine buffer pH 7: 100 mM histidine buffer pH 7.0; for Solubility, Phosphate buffer pH 6: 100 mM phosphate buffer pH 6.0; for Solubility, Phosphate buffer pH 7: 100 mM phosphate buffer pH 7.0; for Solubility, Phosphate buffer pH 7.5: 100 mM phosphate buffer pH7.5
Procedure, shortened: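 Peptide stock (2 mg/ml, water pH 2.5) diluted 1:1 into 100 mM acetate (pH 4.0, 5.0), histidine (pH 6.0, 7.0) or phosphate (pH 6.0–7.5) buffer; absorbance at 325 nm read at about 25°C, n=1. A325 ≤ 0.02 taken as solubility ≥ 1 mg/ml.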

[2] = biological target: T1, human amylin receptor 3 (hAMYR3) consisting of hCTR2 co-expressed with human Receptor Activity Modifying Protein 3 (hRAMP3) (Homo sapiens, UniProt O60896+P30988); test: hAMYR3 assay: induction of cAMP (AlphaScreen cAMP Assay kit) in COS7 cells expressing hAMYR3; assay type: cell-based; details: cAMP induction in COS7 cells expressing hAMYR3; average of a minimum of 3 determinations; read-out: hAMY R3 EC50
T1 construct: expressed in transfected cells
T1 sequence (P30988 25-474): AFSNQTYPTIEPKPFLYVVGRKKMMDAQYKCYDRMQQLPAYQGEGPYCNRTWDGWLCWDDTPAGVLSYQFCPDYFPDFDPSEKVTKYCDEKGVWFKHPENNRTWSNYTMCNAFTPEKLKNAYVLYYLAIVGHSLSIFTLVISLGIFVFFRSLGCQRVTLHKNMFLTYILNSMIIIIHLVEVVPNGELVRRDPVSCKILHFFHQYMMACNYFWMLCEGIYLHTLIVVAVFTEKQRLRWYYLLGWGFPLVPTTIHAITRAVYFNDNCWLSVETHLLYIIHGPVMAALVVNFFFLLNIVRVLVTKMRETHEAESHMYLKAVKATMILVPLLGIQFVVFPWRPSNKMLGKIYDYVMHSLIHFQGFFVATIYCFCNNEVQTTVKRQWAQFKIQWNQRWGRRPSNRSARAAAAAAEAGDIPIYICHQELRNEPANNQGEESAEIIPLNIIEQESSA
T1 sequence (O60896 24-148 partner): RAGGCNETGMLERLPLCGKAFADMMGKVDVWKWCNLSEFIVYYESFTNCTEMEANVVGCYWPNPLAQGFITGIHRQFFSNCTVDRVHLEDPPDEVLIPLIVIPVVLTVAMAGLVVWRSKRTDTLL
Procedure, shortened: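 Stable COS7 clone co-expressing hCTR2 and hRAMP3, stimulated 15 min at 37° C with increasing peptide in Tyrode buffer pH 7.4 with 100 µM IBMX and 0.1% casein. cAMP measured by AlphaScreen after lysis; EC50 and % efficacy versus pramlintide from 4PL fit.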

[3] = biological target: T2, human calcitonin receptor (hCTR2) (Homo sapiens, UniProt P30988); test: hCTR2 assay: induction of cAMP (AlphaScreen cAMP Assay kit) in COS7 cells expressing hCTR2; assay type: cell-based; details: cAMP induction in COS7 cells expressing hCTR2; average of a minimum of 3 determinations; read-out: hCTR2 EC50
T2 construct: expressed in transfected cells
T2 sequence (P30988 25-474): T1 sequence (P30988 25-474)
Procedure, shortened: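 Stable RAMP-naive COS7 clone expressing hCTR2 was stimulated with increasing peptide concentrations in Tyrode buffer (pH 7.4) with 100 µM IBMX and 0.1% casein for 15 min at 37° C. Cells were lysed and cAMP measured by AlphaScreen. EC50 and efficacy relative to pramlintide came from 4PL curve fits.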

Row | Solubility, Acetate buffer pH 4 [1] | Solubility, Acetate buffer pH 5 [1] | Solubility, Histidine buffer pH 6 [1] | Solubility, Histidine buffer pH 7 [1] | Solubility, Phosphate buffer pH 6 [1] | Solubility, Phosphate buffer pH 7 [1] | Solubility, Phosphate buffer pH 7.5 [1] | EC50 [2] | EC50 [3] | Compound
1 | SS (SS indicates solubility ≥ 1mg/ml) | SS (SS indicates solubility ≥ 1mg/ml) | SS (SS indicates solubility ≥ 1mg/ml) | SS (SS indicates solubility ≥ 1mg/ml) | SS (SS indicates solubility ≥ 1mg/ml) | SS (SS indicates solubility ≥ 1mg/ml) | SS (SS indicates solubility ≥ 1mg/ml) | 0.65 nM | 0.22 nM | CC[C@H](C)[C@@H](C(=O)N[C@@H](CC(C)C)C(=O)N[C@@H](CO)C(=O)N[C@@H](CO)C(=O)N[C@H](C(=O)N[C@@H](CCC(=O)O)C(=O)N[C@H](C(=O)NCC(=O)N[C@@H](CO)C(=O)N[C@@H](CCC(=O)O)C(=O)N[C@H](C(=O)N1CCC[C@H]1C(N)=O)[C@@H](C)O)C(C)C)[C@@H](C)O)N(C)C(=O)[C@H](C)NC(=O)CN(C)C(=O)[C@H](Cc1ccccc1)NC(=O)[C@H](CO)NC(=O)[C@H](CO)NC(=O)[C@H](CO)NC(=O)[C@H](CO)NC(=O)[C@H](CCCNC(=N)N)NC(=O)[C@H](Cc1c[nH]cn1)NC(=O)[C@H](CC(C)C)NC(=O)[C@H](Cc1ccccc1)NC(=O)[C@H](CCC(=O)O)NC(=O)[C@H](C)NC(=O)[C@H](CC(C)C)NC(=O)[C@H](CCCNC(=N)N)NC(=O)[C@H](CCC(=O)O)NC(=O)[C@@H](NC(=O)[C@H](C)NC(=O)[C@@H]1CSSC[C@H](NC(=O)[C@H](CCCNC(=N)N)NC(=O)CC[C@H](NC(=O)CCCCCCCCCCCCCCCCCCC(=O)O)C(=O)O)C(=O)N[C@@H](CCC(=O)O)C(=O)N[C@@H]([C@@H](C)O)C(=O)N[C@@H](C)C(=O)N[C@@H]([C@@H](C)O)C(=O)N1)[C@@H](C)O [Compound 134, [19CD]-isoGlu-RC()ETATC()ATERLAEFLHRSSSSF-Gly(Me)-A-Ile(Me)-LSSTEVGSETP-NH2] ({C20 diacid-γGlu}-RCETATCATERLAEFLHRSSSSF[Sar]A[NMeI]LSSTEVGSETP-NH2; disulfide 2-7)
2 | II (II indicates solubility ≤ 1 mg/ml) | SS (SS indicates solubility ≥ 1mg/ml) | SS (SS indicates solubility ≥ 1mg/ml) | SS (SS indicates solubility ≥ 1mg/ml) | SS (SS indicates solubility ≥ 1mg/ml) | SS (SS indicates solubility ≥ 1mg/ml) | SS (SS indicates solubility ≥ 1mg/ml) | 0.19 nM | 0.084 nM | CC[C@H](C)[C@@H](C(=O)N[C@@H](CC(C)C)C(=O)N[C@@H](CO)C(=O)N[C@@H](CO)C(=O)N[C@H](C(=O)N[C@@H](CCC(=O)O)C(=O)N[C@H](C(=O)NCC(=O)N[C@@H](CO)C(=O)N[C@@H](CCC(=O)O)C(=O)N[C@H](C(=O)N1CCC[C@H]1C(N)=O)[C@@H](C)O)C(C)C)[C@@H](C)O)N(C)C(=O)[C@H](C)NC(=O)CN(C)C(=O)[C@H](Cc1ccccc1)NC(=O)[C@H](CO)NC(=O)[C@H](CO)NC(=O)[C@H](CCCNC(=N)N)NC(=O)[C@H](Cc1c[nH]cn1)NC(=O)[C@H](CC(C)C)NC(=O)[C@H](Cc1ccccc1)NC(=O)[C@H](CCC(=O)O)NC(=O)[C@H](C)NC(=O)[C@H](CC(C)C)NC(=O)[C@H](CCCNC(=N)N)NC(=O)[C@H](CCC(=O)O)NC(=O)[C@@H](NC(=O)[C@H](C)NC(=O)[C@@H]1CSSC[C@H](NC(=O)[C@H](Cc2c[nH]c3ccccc23)NC(=O)CC[C@H](NC(=O)CCCCCCCCCCCCCCCCCCC(=O)O)C(=O)O)C(=O)NCC(=O)N[C@@H]([C@@H](C)O)C(=O)N[C@@H](C)C(=O)N[C@@H]([C@@H](C)O)C(=O)N1)[C@@H](C)O [Compound 161, [19CD]-isoGlu-WC()GTATC()ATERLAEFLHRSSF-Gly(Me)-A-Ile(Me)-LSSTEVGSETP-NH2] ({C20 diacid-γGlu}-WCGTATCATERLAEFLHRSSF[Sar]A[NMeI]LSSTEVGSETP-NH2; disulfide 2-7)
3 | SS (SS indicates solubility ≥ 1mg/ml) | SS (SS indicates solubility ≥ 1mg/ml) | SS (SS indicates solubility ≥ 1mg/ml) | SS (SS indicates solubility ≥ 1mg/ml) | SS (SS indicates solubility ≥ 1mg/ml) | SS (SS indicates solubility ≥ 1mg/ml) | SS (SS indicates solubility ≥ 1mg/ml) | 0.14 nM | 0.049 nM | CC[C@H](C)[C@@H](C(=O)N[C@@H](CC(C)C)C(=O)N[C@@H](CO)C(=O)N[C@@H](CO)C(=O)N[C@H](C(=O)N[C@@H](CCC(=O)O)C(=O)N[C@H](C(=O)NCC(=O)N[C@@H](CO)C(=O)N[C@@H](CCC(=O)O)C(=O)N[C@H](C(=O)N1CCC[C@H]1C(N)=O)[C@@H](C)O)C(C)C)[C@@H](C)O)N(C)C(=O)[C@H](C)NC(=O)CN(C)C(=O)[C@H](Cc1ccccc1)NC(=O)[C@H](CO)NC(=O)[C@H](CO)NC(=O)[C@H](CCCNC(=N)N)NC(=O)[C@H](Cc1c[nH]cn1)NC(=O)[C@H](CC(C)C)NC(=O)[C@H](Cc1ccccc1)NC(=O)[C@H](CCC(=O)O)NC(=O)[C@H](C)NC(=O)[C@H](CC(C)C)NC(=O)[C@H](CCCNC(=N)N)NC(=O)[C@H](CCC(=O)O)NC(=O)[C@@H](NC(=O)[C@H](C)NC(=O)[C@@H]1CSSC[C@H](NC(=O)[C@H](CCCNC(=N)N)NC(=O)CC[C@H](NC(=O)CCCCCCCCCCCCCCCCCCC(=O)O)C(=O)O)C(=O)NCC(=O)N[C@@H]([C@@H](C)O)C(=O)N[C@@H](C)C(=O)N[C@@H]([C@@H](C)O)C(=O)N1)[C@@H](C)O [Compound 162, [19CD]-isoGlu-RC()GTATC()ATERLAEFLHRSSF-Gly(Me)-A-Ile(Me)-LSSTEVGSETP-NH2] ({C20 diacid-γGlu}-RCGTATCATERLAEFLHRSSF[Sar]A[NMeI]LSSTEVGSETP-NH2; disulfide 2-7)
4 | SS (SS indicates solubility ≥ 1mg/ml) | SS (SS indicates solubility ≥ 1mg/ml) | SS (SS indicates solubility ≥ 1mg/ml) | SS (SS indicates solubility ≥ 1mg/ml) | SS (SS indicates solubility ≥ 1mg/ml) | SS (SS indicates solubility ≥ 1mg/ml) | SS (SS indicates solubility ≥ 1mg/ml) | 0.11 nM | 0.074 nM | CC[C@H](C)[C@@H](C(=O)N[C@@H](CC(C)C)C(=O)N[C@@H](CO)C(=O)N[C@@H](CO)C(=O)N[C@H](C(=O)N[C@@H](CCC(=O)O)C(=O)N[C@H](C(=O)NCC(=O)N[C@@H](CO)C(=O)N[C@@H](CCC(=O)O)C(=O)N[C@H](C(=O)N1C[C@H](O)C[C@H]1C(N)=O)[C@@H](C)O)C(C)C)[C@@H](C)O)N(C)C(=O)[C@H](C)NC(=O)CN(C)C(=O)[C@H](Cc1ccccc1)NC(=O)[C@H](CO)NC(=O)[C@H](CO)NC(=O)[C@H](CCCNC(=N)N)NC(=O)[C@H](Cc1c[nH]cn1)NC(=O)[C@H](CC(C)C)NC(=O)[C@H](Cc1ccccc1)NC(=O)[C@H](CCC(=O)O)NC(=O)[C@H](C)NC(=O)[C@H](CC(C)C)NC(=O)[C@H](CCCNC(=N)N)NC(=O)[C@H](CCC(=O)O)NC(=O)[C@@H](NC(=O)[C@H](C)NC(=O)[C@@H]1CSSC[C@H](NC(=O)[C@H](CCCNC(=N)N)NC(=O)CC[C@H](NC(=O)CCCCCCCCCCCCCCCCCCC(=O)O)C(=O)O)C(=O)NCC(=O)N[C@@H]([C@@H](C)O)C(=O)N[C@@H](C)C(=O)N[C@@H]([C@@H](C)O)C(=O)N1)[C@@H](C)O [Compound 166, [19CD]-isoGlu-RC()GTATC()ATERLAEFLHRSSF-Gly(Me)-A-Ile(Me)-LSSTEVGSET-Hyp-NH2] ({C20 diacid-γGlu}-RCGTATCATERLAEFLHRSSF[Sar]A[NMeI]LSSTEVGSET[Hyp]-NH2; disulfide 2-7)
